The values that follow come from ChEMBL document CHEMBL2321649 (Bioorg Med Chem, 2013).

The test system of one experiment is B16. Kind of experiment: Cytotoxicity against mouse B16 cells after 48 hrs by MTT assay. The format is functional, cell-based. The following applies: B16, 48 h. Background: Tetrazolium dyes change colour on reduction, which living cells bring about.
A further experiment addresses Tubulin. Kind of experiment: Inhibition of tubulin (unknown origin) assessed as inhibition of GTP-induced polymerization incubated for 45 mins prior to GTP-addition measured after 2 hrs by DAPI-staining based fluorimetric analysis. The format is protein-complex assay, Homo sapiens.
Experiment [1] in a line: Antivascular activity against human EAhy926 cells assessed as rounding up morphology after 2 hrs by microscopic analysis. It is filed as functional. The following applies: EA.hy 926, 2 h, read-out: MEC.

In general, IC50 refers to the concentration at which inhibition is half-maximal.

`COc1ccc(C2CC2c2cc(OC)c(OC)c(OC)c2)cc1O` (racemic): the values for the IC50 with B16 and on Tubulin were 320 nM and 1000 nM, respectively. In experiment [1], the minimal effective concentration was 0.12 µM.

`COc1ccc(/C=C\c2cc(OC)c(OC)c(OC)c2)cc1O` [COMBRETASTATIN A4]: the IC50 in the experiment with B16 was determined as 3 nM. Besides, the minimal effective concentration in experiment [1] is 0.006 µM.

Consider `COc1ccc([C@H]2C[C@H]2c2cc(OC)c(OC)c(OC)c2)cc1O`, for which the results for the IC50 with B16 and at Tubulin were 520 nM and 6800 nM, respectively. Also, in experiment [1], the minimal effective concentration came out at 0.5 µM.

For `COc1cc([C@@H]2C[C@@H]2/C=C/c2ccccc2)cc(OC)c1OC`, the IC50 in the experiment with B16 stood at 570 nM; at Tubulin it was 1300 nM. In addition, the minimal effective concentration in experiment [1] amounted to 0.5 µM.

On to `COc1ccc(C2CC2c2cc(OC)c(OC)c(OC)c2)cc1N` (racemic), for which the IC50 was determined as 290 nM with B16 and 2800 nM at Tubulin. The minimal effective concentration in experiment [1] worked out at 0.12 µM.

For `COc1cc(C2CC2/C=C/c2ccccc2)cc(OC)c1OC` (racemic), the half-inhibitory concentration (IC50) was determined as 620 nM in the experiment on B16 and 1800 nM at Tubulin. Moreover, the minimal effective concentration in experiment [1] turned out to be 0.5 µM.

On to `COc1cc([C@H]2C[C@H]2/C=C/c2ccccc2)cc(OC)c1OC`, for which the IC50 with B16 is 2740 nM; on Tubulin it was 4500 nM. Further, in experiment [1], the minimal effective concentration was 3.13 µM.

Turning to `COc1ccc(C2CC2c2cc(OC)c(OC)c(OC)c2)cc1[N+](=O)[O-]` (racemic), the values for the IC50 in the experiment with B16 and at Tubulin were 15400 nM and 26300 nM, respectively. The minimal effective concentration in experiment [1] was determined as 3.13 µM.

As to `COc1ccc([C@@H]2C[C@@H]2c2cc(OC)c(OC)c(OC)c2)cc1O`, the IC50 in the experiment with B16 and at Tubulin was 300 nM each time. For the same compound, the minimal effective concentration in experiment [1] was determined as 0.12 µM.
